Results published in patent US11001569B2, “6-membered heteroaromatic substituted cyanoindoline derivatives as NIK inhibitors” (Janssen Pharmaceutica NV, priority 2016, dated 2021).
Like-named read-outs stand apart in the source and are kept apart here.

Legend:
[1] = molecular target: recombinant human NF-kappaB-inducing Kinase (NIK/MAP3K14) (Homo sapiens, UniProt Q99558); assay: Inhibition of auto-phosphorylation of recombinant human NIK/MAP3K14 activity (AlphaScreen); type: biochemical; details: 25 microM ATP, averaged over all measurements on all batches
[2] = system: JJN-3 (NIK translocated) multiple myeloma cells; assay: Antiproliferative activity on JJN-3 multiple myeloma cells (CellTiter-Glo); type: cell-based, human; details: JJN-3 (NIK translocated) cells, 96 hr treatment, averaged values, read-out: JJN-3 Proliferation inhibition (IC50 (nM))
Outline: (§1)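 Cells plated at 15000 (JJN3) or 20000 (KMS12BM) per well and treated 96 h at 37° C, 5% CO2, final DMSO 0.3%, 9-point 1:3 dilutions. Viability by CellTiter-Glo luminescence; time-zero blank subtracted, growth expressed as percent of untreated control.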

[3] = system: KMS12-BM (NIK WT) multiple myeloma cells; assay: Antiproliferative activity on KMS12-BM multiple myeloma cells (CellTiter-Glo); type: cell-based, human; details: 96 hr treatment, averaged values, read-out: KMS-12 Proliferation inhibition (IC50 (nM))
Outline: as §1

[4] = system: P-IKKα levels in L363 (NIK translocated multiple myeloma) cells; assay: Effect of compounds on P-IKKα levels in L363 cells (Mesoscale sandwich immuno-assay); type: cell-based, human; details: 2 hr treatment, averaged values, read-out: Inhibition of pIKKα_L-363 (IC50 (nM))
Method: Effect of Compounds on P-IKKα Levels in L363 (NIK Translocated Multiple Myeloma) Cells
All compounds tested were dissolved in DMSO and further dilutions were made in culture medium. Final DMSO concentration was 1% (v/v) in cell assays. The human L363 cells (ATCC) were cultured in RPMI 1640 medium supplemented with GlutaMax and 10% fetal calf serum (PAA). Cells were routinely maintained at densities of 0.2×10^6 cells per ml-1×10^6 cells per ml at 37° C. in a humidified 5% CO2 atmosphere. Cells were passaged twice a week splitting back to obtain the low density. Cells were seeded in 96 well plates (Nunc 167008) at 2×10^6 per ml media in a volume of 75 μl per well plus 25 μl 1 μg/ml recombinant human B-cell activating factor (BAFF/BLyS/TNFSF13B). Seeded cells were incubated at 37° C. in a humidified 5% CO2 atmosphere for 24 hr. Drugs and/or solvents were added (20 μl) to a final volume of 120 μl. Following 2 hr treatment plates were removed from the incubator and cell lysis was achieved by the addition of 30 μl 5× lysis buffer followed by shaking on a plate shaker at 4° C. for 10 min. At the end of this incubation lysed cells were centrifuged at 800×g for 20 min at 4° C. and the lysate was assessed for P-IKK levels by sandwich immuno-assay carried out in anti-rabbit antibody coated Mesoscale plates. Within an experiment, the results for each treatment were the mean of 2 replicate wells. For initial screening purposes, compounds were tested using an 8 point dilution curve (serial 1:3 dilutions). […] The blank incubation value was subtracted from all control and sample values. To determine the IC50 a sigmoidal curve was fitted to the plot of % inhibition of control P-IKKα levels versus Log10 compound concentration.

recombinant human NF-kappaB-inducing Kinase (NIK/MAP3K14), sequence (Q99558 whole entry): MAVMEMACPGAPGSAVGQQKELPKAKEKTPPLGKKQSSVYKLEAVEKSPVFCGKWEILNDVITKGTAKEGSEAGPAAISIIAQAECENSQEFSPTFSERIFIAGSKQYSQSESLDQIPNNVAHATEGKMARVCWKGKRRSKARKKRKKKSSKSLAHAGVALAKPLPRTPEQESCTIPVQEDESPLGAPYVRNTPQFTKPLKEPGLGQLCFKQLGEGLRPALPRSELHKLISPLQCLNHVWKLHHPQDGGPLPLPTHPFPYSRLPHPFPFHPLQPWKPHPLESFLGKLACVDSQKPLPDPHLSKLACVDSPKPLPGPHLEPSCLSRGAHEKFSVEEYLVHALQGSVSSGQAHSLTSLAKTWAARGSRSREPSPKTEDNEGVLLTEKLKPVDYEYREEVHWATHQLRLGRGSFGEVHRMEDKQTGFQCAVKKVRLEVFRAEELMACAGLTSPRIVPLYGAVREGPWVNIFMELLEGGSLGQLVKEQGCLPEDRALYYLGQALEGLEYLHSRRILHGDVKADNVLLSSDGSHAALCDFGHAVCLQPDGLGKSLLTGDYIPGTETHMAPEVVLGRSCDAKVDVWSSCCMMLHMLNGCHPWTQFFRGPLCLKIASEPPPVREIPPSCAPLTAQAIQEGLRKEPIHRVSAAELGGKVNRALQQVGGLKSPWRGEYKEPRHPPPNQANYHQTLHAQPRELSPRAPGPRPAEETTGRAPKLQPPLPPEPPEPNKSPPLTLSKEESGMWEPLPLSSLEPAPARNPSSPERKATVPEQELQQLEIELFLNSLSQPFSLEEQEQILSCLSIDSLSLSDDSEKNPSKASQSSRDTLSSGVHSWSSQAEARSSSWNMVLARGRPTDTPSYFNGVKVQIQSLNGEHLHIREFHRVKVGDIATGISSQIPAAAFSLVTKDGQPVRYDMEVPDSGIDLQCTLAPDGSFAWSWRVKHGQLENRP

SMILES | IC50 [1] [nM] | IC50 ([2]; Homo sapiens, JJN-3, 96 h) [nM] | melting point [°C] | IC50 ([3]; Homo sapiens, KMS-12-BM, 96 h) [nM] | IC50 ([4]; Homo sapiens, L-363, 2 h) [nM] | IC50 [4] [nM] | IC50 [2] [nM] | IC50 [3] [nM]
C[C@]1(CO)CNc2c(C#N)cc(-c3ccnc(Nc4ccc[nH]c4=O)n3)cc21 [Compound 8i] | 4.5 | 776 | > 250 | > 10000 | 74.1 | – | – | –
COCCNc1nc(OC)c(Nc2nccc(-c3cc(C#N)c4c(c3)C(C)(CO)CN4)n2)cc1Cl (stereo not drawn) [Compound 2] | 13.2 | 74 | 230 | > 10000 | 21.4 | – | – | –
COCCN(C)c1nc(C)c(Nc2nccc(-c3cc(C#N)c4c(c3)[C@@](C)(CO)CN4)n2)cc1Cl [Compound 51] | 3 | 31 | 152 | > 10000 | 2.8 | – | – | –
CC(C)(O)COc1ncc(C#N)cc1Nc1nccc(-c2cc(C#N)c3c(c2)[C@@](C)(CO)CN3)n1 [Compound 77] | 5 | 60 | 162 | > 10000 | 25.7 | – | – | –
Cc1cnc(OC2CN(C)CC2F)c(Nc2nccc(-c3cc(C#N)c4c(c3)[C@@](C)(CO)CN4)n2)c1 (stereo partly drawn) [Compound 153] | 5.8 | 240 | 180 | ~5890 | – | 9.3 | – | –
COc1cnc(C)cc1Nc1nccc(-c2cc(C#N)c3c(c2)[C@@](C)(CO)CN3)n1 [Compound 162] | 3 | 60 | > 260 | > 10000 | 1.3 | – | – | –
CN1CCCC(COc2ncc(Cl)cc2Nc2nccc(-c3cc(C#N)c4c(c3)[C@@](C)(CO)CN4)n2)C1 (single isomer, unassigned) [Compound 56] | 3.5 | – | 126 | – | – | ~7240 | 7 | ~148
Cc1cnc(OC2CN(C)CC2F)c(Nc2nccc(-c3cc(C#N)c4c(c3)[C@@](C)(CO)CN4)n2)c1 (stereo partly drawn) [Compound 154] | 7.2 | – | 185 | – | – | 3 | 148 | ~7940
COCCOc1ncc(F)cc1Nc1nccc(-c2cc(C#N)c3c(c2)[C@@](C)(CO)CN3)n1 [Compound 61] | 3 | 389 | 186 | > 10000 | 19.5 | – | – | –
COc1nc(/C=C/C(=O)N(C)C)ccc1Nc1nccc(-c2cc(C#N)c3c(c2)[C@@](C)(CO)CN3)n1 [Compound 48] | 2.9 | ~295 | 192 | > 10000 | 1.2 | – | – | –
CCCc1ncc(C#N)cc1Nc1nccc(-c2cc(C#N)c3c(c2)[C@@](C)(CO)CN3)n1 [Compound 63] | 2.9 | 98 | 193 | > 10000 | 17.4 | – | – | –
Cc1cc(Nc2nccc(-c3cc(C#N)c4c(c3)[C@@](C)(CO)CN4)n2)c(=O)n(CCN2CC(F)(F)C2)c1 [Compound 17i] | 1.9 | 33 | 190 | > 10000 | 1.8 | – | – | –
Cn1cc(Cl)cc(Nc2nccc(-c3cc(C#N)c4c(c3)[C@@](C)(CO)CN4)n2)c1=O [Compound 13i] | 1.9 | 31 | 306 | > 10000 | 0.9 | – | – | –
Cc1cc(Nc2nccc(-c3cc(C#N)c4c(c3)[C@@](C)(CO)CN4)n2)c(=O)n(CCN2CCCOCC2)c1 [Compound 20i] | 2.3 | 41 | 287 | > 10000 | 1.5 | – | – | –
Cc1cnc(C#N)cc1Nc1nccc(-c2cc(C#N)c3c(c2)[C@@](C)(CO)CN3)n1 [Compound 170] | 1.1 | 5 | 279 | > 10000 | 1 | – | – | –
